Reference: publication doi:10.1101/2024.03.13.583470v1, “SARS-CoV-2 methyltransferase nsp10-16 in complex with natural and drug-like purine analogs for guiding structure-based drug discovery” (biorxiv, 2024)

Target: T1, nsp10-16 (Severe acute respiratory syndrome coronavirus 2, UniProt P0DTD1)
T1 construct: gene rep
Test: X-ray crystallography, soaking
Assay type: binding
Details: SAM site, fully replaces SAM; 10 mM soak, pH 6.5

Row | Compound | X-ray crystallography, soaking
1 | Nc1ncnc2c1c(I)cn2[C@@H]1O[C@H](CO)[C@@H](O)[C@H]1O [5-iodotubercidin] | toyocamycin, sangivamycin and 5-iodotubercidin share the same orientation as tubercidin
2 | N#Cc1cn([C@@H]2O[C@H](CO)[C@@H](O)[C@H]2O)c2ncnc(N)c12 [toyocamycin] | toyocamycin, sangivamycin and 5-iodotubercidin share the same orientation as tubercidin
